{"source": "patent US20220218614A1", "about": "“IONIZABLE CATIONIC LIPIDS AND LIPID NANOPARTICLES, AND METHODS OF SYNTHESIS AND USE THEREOF” (Tidal Therapeutics, Inc., priority 2020, published 2022)", "key": {"[1]": {"tested_on": "human CD3 T cells", "assay": "Transfection of human CD3 T cells (CD8 and CD4 subsets) with Fab/Nb-targeted LNPs", "type": "cell-based", "conditions": "targeted Lipid 8 LNP (Lipid 5 in Example 43), GFP mRNA approximately 2.5 μg/mL, approximately 24 hr", "procedure": "(§1) LNPs were prepared using the mixing process described in Example 6, the buffer exchange process described below in Example 21. Using methods similar to Example 12, hSP34 and TRX2 Fab-lipid conjugates and a non-T cell specific anti-HER2 lipid-conjugate (Nellis D F, Ekstrom D L, Kirpotin D B, Zhu J, Andersson R, Broadt T L, Ouellette T F, Perkins S C, Roach J M, Drummond D C, Hong K, Marks J D, Park J W and Giardina S L (2005) Preclinical manufacture of an anti-HER2 scFv-PEG-DSPE, liposome-inserting conjugate. 1. Gram-scale production and purification. Biotechnol Prog 21:205-220) were post-inserted at various densities (SP34 0.25-17 g/mol; TRX2 0.25-9 g/mol; SP34+TRX2 0.25-9 g/mol each conjugate; anti-HER2 17 g/mol) into LNPs containing Lipid 8 and anti-CD20 targeting CART mRNA. Transfections were performed with human CD3 T cells at approximately 2.5 μg/mL mRNA for approximately 24 hr. For FACS analysis T cells were stained with M1 antibody (Sigma, F3040) that bind a N-terminus FLAG-tag variant sequence on the TTR-023 CAR (sequence provided below) in addition to staining for CD69 (Biolegend, 310930) and CD4 (Biolegend, 344648) to differentiate CD8 from CD4 cells.\nLNPs were prepared using the mixing process described in Example 6, the buffer exchange process described in Example 21. Using methods similar to Example 12, hSP34, TRX2, and Ibalizumab Fab-lipid conjugates and a non-T cell specific anti-HER2 lipid-conjugate were post-inserted at various densities (specified in FIGS. 20A and 20B into LNPs containing Lipid 8 and Cy5/GFP mRNA. Transfections were performed with human CD3 T cells at approximately 2.5 μg/mL mRNA for approximately 24 hr and stained for CD69 (Biolegend, 310930) and CD4 (Biolegend, 344648) to differentiate CD8 from CD4 cells by FACS analysis.\nLNPs were prepared using the mixing process described in Example 6, the buffer exchange process described in Example 21. […] Levels of transfection of CD3 T cells was measured by flow cytometry. […]"}, "[2]": {"tested_on": "CD69", "assay": "CD69 upregulation on T cells after LNP transfection (FACS staining)", "type": "cell-based, human", "conditions": "approximately 24 hr after targeted Lipid 8 LNPs at approximately 2.5 μg/mL mRNA", "procedure": "as §1\nLNPs were prepared using the mixing process described in Example 6, the buffer exchange process described in Example 21. […]"}}, "note": "Entries after “also recorded” stand apart in the source; their conditions may differ.", "data": [{"substance": "Ibalizumab: anti-CD4 Fab from Ibalizumab sequence, SEQ ID NO: 10 and 11", "values": [{"measurement": "% GFP transfection and GFP expression (MFI) of CD8 and CD4 T cells, in words", "setting": "[1]", "value": "higher % transfection (FIG. 71A) and GFP expression levels; also recorded: highly specific LNP transfection and protein translation of CD4+ T cells versus CD8+ T cells; also recorded: increase in transfection efficiency going from 2K PEG to 3.4K PEG; also recorded: high binding and transfection of CD4 T cells while displaying minimal off-target binding and transfection of CD8 T cells"}, {"measurement": "CD69 upregulation on CD8 and CD4 T cells, in words", "setting": "[2]", "value": "much lower levels of CD69"}]}]}
